Experimental data as given in PMC2586070 (Peptides, 2008).
Where no end group is shown, it is not given here.

Tested on: blood-brain barrier (BBB)
Type: in vivo, male CD-1 mice

Compound: CNC[C@H](O)c1ccc(O)c(O)c1 [Epinephrine]
- effect on I-Ghr uptake across the BBB (epinephrine 40 nmol/mouse in the iv injection, 8 week old mice): no effect

Compound: I-Ghr: Human ghrelin radioactively labeled with 131I by the chloramine-T method, purified by reverse-phase HPLC (GSSFLSPEHQRVQQRKESKKPPAKLQPR; ends and bridges not checked; also: 131I radiolabel, site not given here; UniProt Q9UBU3 24-51, looked up)
- effect of 48 h fasting on Ki of I-Ghr vs fed animals (mouse, in vivo, iv): arithmetic increase

Compound: triolein
- enhancement of I-Ghr transport across the BBB (triolein 7.2 mg/mouse iv with I-Ghr, 8 week old mice): over 70%
